# Assay results from patent EP2450458B1, “Novel microorganisms producing a thermostable lipase and their use” (Universiti Putra Malaysia (UPM), priority 2010, dated 2012).
# “And” between values parts separate entries of the source, which are not always exact repeats. Equal entries are not always repeated.
# What was measured:
# [1] = test system: purified recombinant ARM thermostable lipase; test: Effect of metal ions on lipase activity; format: biochemical, Geobacillus sp. strain ARM; settings: pre-incubation 30 min at 30°C, assay at 65°C
# Protocol: To determine the effects of metal ions on the lipase activity, the purified enzyme was pre-incubated for 30 min at 30°C with various metal ions. Two concentrations (1 and 5 mM) of each of the following ions were used: CO^2+, CU^2+, Mg^2+, Ni^2+, Mn^2+, Zn^2+ Fe^2+, Ca^2+, Sr^2+, K^+, Na^+, Rb^+ and Ag^+. All salts were dissolved in MOPS buffer (50 mM, pH 8.0) (Aslamkhan et al., 2002). The control contained no ion. The relative activity was measured at 65°C using olive oil (emulsified, 1:1 v/v, in 50 mM Tris-HCl buffer, pH 8.0) as substrate. Metal cations play different and important roles in influencing the structure and function of lipases (Gupta et al.., 2004a; Kim et al., 2005). The effect of different metal ions on the purified ARM lipase activity was studied (Figure 29). […] The Ca^2+-binding motif was not found in ARM lipase sequence.
# [2] = test system: purified recombinant ARM thermostable lipase; test: Effect of surfactants on lipase activity; format: biochemical, Geobacillus sp. strain ARM; settings: pre-incubation 30 min at 30°C, assay at 65°C
# Protocol: The effect of surfactants on the lipase activity was investigated by pre-incubating the purified enzyme for 30 min at 30°C in Tris-HCl buffer (50 mM, pH 8.0) containing 0.1 and 1% (v/v) of following surfactants (nonionic surfactants): Tween 20, Tween 40, Tween 80, Tween 85, Triton X-100, Triton B1958, Span 20. In the case of SDS (ionic surfactant) concentrations were 1 and 5 mM. The control contained no surfactant. The relative activity was measured at 65°C using olive oil (emulsified, 1:1 v/v, in 50 mM Tris-HCl buffer, pH 8.0) as substrate. The effects of various surfactants on the purified ARM lipase are depicted in Figure 30.
# [3] = values in parenthesis used to select the solvents; cited from earlier work
# [4] = test system: purified recombinant ARM thermostable lipase; test: Lipase organic solvent-stability; format: biochemical, Geobacillus sp. strain ARM; settings: solvent 30% v/v, 30 min at 30°C, 150 rpm; assay at 65°C
# Protocol: Aliquots of the enzyme were incubated with the solvents (30%, v/v) for 30 min at 30°C with shaking at 150 rpm. […] The stability was expressed as the remaining lipolytic activity relative to that of the control (without solvent). The relative activity was measured at 65°C as described before.
# [5] = test system: purified recombinant ARM thermostable lipase; test: Effect of inhibitors on lipase activity; format: biochemical, Geobacillus sp. strain ARM; settings: pre-incubation 30 min at 30°C, assay at 65°C
# Protocol: The control contained no inhibitor. The relative activity was measured at 65°C using olive oil (emulsified, 1:1 v/v, in 50 mM Tris-HCl buffer, pH 8.0) as substrate.
# [6] = test system: purified recombinant ARM thermostable lipase; test: Effect of ionic liquids on lipase hydrolytic activity; format: biochemical, Geobacillus sp. strain ARM; settings: 90% (v/v) ionic liquid, 0 min, without incubation; assay at 65°C
# Protocol: (§1) Aliquots of the enzyme were suspended in 90% (v/v) of four different ionic liquids (ILs) properly. Then, the mixture of lipase and ILs was incubated for 0-90 min at 60°C with shaking at 150 rpm. The selected ILs were [Emim][BF4], [Emim][TfO], [Bmim][BF4] and […]. The thermostability was expressed as the remaining lipolytic activity relative to that of the control (without ILs) after incubation at high temperature. The residual activity was measured at 65°C as described before.
# [7] = test system: purified recombinant ARM thermostable lipase; test: Effect of ionic liquids on lipase thermostability at 60°C; format: biochemical, Geobacillus sp. strain ARM; settings: 90% (v/v) ionic liquid, 0-90 min at 60°C, 150 rpm; assay at 65°C
# Protocol: as §1
Compound,log P [3],remaining lipolytic activity relative to the control (without solvent) [4],also measured
[Ca+2] [Ca^2+],,,effect on lipase activity ([1]; 1 and 5 mM ion): stimulated the lipase activity
Triton X-100,,,increase in lipase activity ([2]; 1% surfactant): 20%
hexanes,3.6,more than 100%,
1-propanol,,,effect on lipase activity/stability [4]: dramatically inhibited
1-butanol,,,effect on lipase activity/stability [4]: dramatically inhibited
[Sr+2] [Sr^2+],,,effect on lipase activity ([1]; 1 mM ion): stimulated the lipase activity
"O=C(O)CN(CCN(CC(=O)O)CC(=O)O)CC(=O)O [EDTA, ethylene diamine tetra-acetic acid]",,,activation of the lipase ([5]; 1 mM): around 20%; activation of the lipase ([5]; 5 mM): more than 60%
CC(C)CC(C)(C)C [iso-octane],4.5,more than 100%,
CCCCCCCCCCCCCC [n-tetradecane],7,more than 100%,
c1ccccc1 [benzene],,more than 100%,
CC#N [acetonitrile],-0.394,,effect on lipase activity/stability [4]: dramatically inhibited
CCCCCCCCCCCCCCCCC [heptadecane],8.69,more than 100%,
CCCCCCCCCCCCO [1-dodecanol],5,more than 100%,
CC(C)=O [acetone],-0.208,,effect on lipase activity/stability [4]: dramatically inhibited
OCc1ccccc1 [bnzyl alcohol],,,effect on lipase activity/stability [4]: dramatically inhibited
CCCCCCC [heptan],4.4,more than 100%,
CCn1cc[n+](C)c1.F[B-](F)(F)F [[Emim][BF4]],,,effect on lipase activity [6]: no significant effect; effect on lipase thermostability [7]: significant effects on lipase thermostability enhancement
CCCCCCCCCCO [1-decanol],,86%,

Compound,log P [3],remaining lipolytic activity relative to the control (without solvent) [4],also measured
CCc1ccccc1 [ethylbenzene],3.3,77%,
"CC(O)C(C)O (stereo not shown) [2,3-butanediol]",-0.92,,
CC(C)O [2-propanol],,,effect on lipase activity/stability [4]: dramatically inhibited
Span 20,,,effect on lipase activity ([2]; 0.1 and 1% (v/v) surfactant): not affected
Cc1ccccc1C [o-xylene],,more than 100%,
CCCCCCCCCCCO [1-undecanol],4.6,74%,
CCn1cc[n+](C)c1.O=S(=O)([O-])C(F)(F)F [[Emim][TfO]],,,lipase activity relative to the control (without ILs) [6]: up to 120%; effect on lipase thermostability [7]: significant effects on lipase thermostability enhancement
Cc1ccccc1 [toluene],,more than 100%,
CC(C)CCO [iso-amyl alcohol],1.3,,effect on lipase activity/stability [4]: dramatically inhibited
CCCCCCCCO [1-octanol],2.9,more than 100%,
CCCCn1cc[n+](C)c1.F[P-](F)(F)(F)(F)F [[Bmim][PH6]],,,lipase activity relative to the control (without ILs) [6]: up to 120%
CCCCCCCCCCCCOS(=O)(=O)[O-].[Na+] [SDS],,,effect on lipase activity ([2]; 1 and 5 mM (ionic surfactant)): strongly inhibited
CCCCn1cc[n+](C)c1.F[B-](F)(F)F [[Bmim][BF4]],,,effect on lipase activity [6]: decreased lipase activity
CC(C)CO [iso-butanol],0.79,,effect on lipase activity/stability [4]: dramatically inhibited
CCCCCCCCCCCCCCCC [1-hexadecane],,78%,
CCCCCCCCCCCCCCC [n-pentadecane],7.71,more than 100%,
C[S+](C)[O-] [DMSO],,62.5% and 62.4%,
